The values below come from patent US6414154B1, “Tetraisoquinoline derivatives as modulators of dopamine D3 receptors” (SmithKline Beecham p.l.c., priority 1998, dated 2002).

Molecules are shown by their SMILES.

The target of the experiment is T1, human D3 dopamine receptors (Homo sapiens, UniProt P35462).
T1 construct: expressed in transfected cells; host or cells: CHO cells (crude cell membranes)
T1 sequence (P35462 whole entry): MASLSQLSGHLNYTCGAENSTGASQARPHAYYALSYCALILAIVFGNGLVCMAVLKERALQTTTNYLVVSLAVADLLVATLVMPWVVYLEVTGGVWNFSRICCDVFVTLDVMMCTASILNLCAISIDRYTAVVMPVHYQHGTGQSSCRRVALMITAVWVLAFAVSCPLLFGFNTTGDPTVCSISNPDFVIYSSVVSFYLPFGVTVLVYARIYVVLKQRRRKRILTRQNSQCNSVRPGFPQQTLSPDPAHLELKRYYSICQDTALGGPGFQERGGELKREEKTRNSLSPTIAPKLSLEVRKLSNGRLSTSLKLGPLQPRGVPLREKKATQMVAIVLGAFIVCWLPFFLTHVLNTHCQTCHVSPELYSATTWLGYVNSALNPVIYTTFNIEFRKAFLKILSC
Put plainly: displacement of [125I] iodosulpride binding to cloned human D3 dopamine receptors expressed in CHO cells. The conditions noted are these: 0.1 nM [125I] iodosulpride, CHO cell membranes, 30 min at 37° C.; read-out: pKi at the D3 receptor (converted). The method, then: The inhibition constants (Ki) of test compounds for displacement of [^125I] iodosulpride binding to human D3 dopamine receptors expressed in CHO cells were determined as follows. […] Cultures were grown as monolayers or in suspension in standard cell culture media. Cells were recovered by scraping (from monolayers) or by centrifugation (from suspension cultures), and were washed two or three times by suspension in phosphate buffered saline followed by collection by centrifugation. Cell pellets were stored frozen at −40° C. Crude cell membranes were prepared by homogenisation followed by high-speed centrifugation, and characterisation of cloned receptors achieved by radioligand binding.
Cell pellets were gently thawed at room temperature, and resuspended in about 20 volumes of ice-cold 50 mM Tris salts (pH 7.4@37° C.), 20 mM EDTA, 0.2 M sucrose. The suspension was homogenised using an Ultra-Turrax at full speed for 15 sec. The homogenate was centrifuged at 18,000 r.p.m for 20 min at 4° C. in a Sorvall RC5C centrifuge. The membrane pellet was resuspended in ice-cold 50 mM Tris salts (pH 7.4@37° C.), using an Ultra-Turrax, and recentrifuged at 18,000 r.p.m for 15 min at 4° C. in a Sorvall RC5C. The membranes were washed two more times with ice-cold 50 mM Tris salts (pH 7.4@37° C.). The final pellet was resuspended in 50 mM Tris salts (pH 7.4@37° C.), and the protein content determined using bovine serum albumin as a standard (Bradford, M. M. (1976) Anal. Biochem. 72, 248-254).
Crude cell membranes were incubated with 0.1 nM [^125I] iodosulpride (˜2000 Ci/mmol; Amersham, U. K.), and the test compound in a buffer containing 50 mM Tris salts (pH 7.4@37° C.), 120 mM NaCl, 5 mM KCl, 2 mM CaCl2, 1 mM MgCl2, 0.1% (w/v) bovine serum albumin, in a total volume of 1 ml for 30 min at 37° C. Following incubation, samples were filtered using a Brandel Cell Harvester, and washed three times with ice-cold 50 mM Tris salts (pH 7.4@37° C.), 120 mM NaCl, 5 mM KCl, 2 mM CaCl2, 1 mM MgCl2. The radioactivity on the filters was measured using a Cobra gamma counter (Canberra Packard). Non-specific binding was defined as the radioligand binding remaining after incubation in the presence of 100 μM iodosulpride. For competition curves, 14 concentrations (half-log dilutions) of competing cold drug were used. Competition curves were analysed simultaneously whenever possible using non-linear least-squares fitting procedures, capable of fitting one, two or three site models.
`N#Cc1ccc2c(c1)CCN(CC[C@H]1CC[C@H](NC(=O)Cc3ccccc3)CC1)C2` [Example 1, trans-6-Cyano-2-(2-(1-(4-phenylacetamido)cyclohexyl)ethyl)-1,2,3,4-tetrahydroisoquinoline]: the Ki was 3.16 to 12.6 nM.
The figure for `N#Cc1ccc2c(c1)CCN(CC[C@H]1CC[C@H](NC(=O)Cc3ccc4ccccc4c3)CC1)C2` [Example 2, trans-6-Cyano-2-(2-(1-(4-(2-naphthyl)acetamido)cyclohexyl)ethyl)-1,2,3,4-tetrahydroisoquinoline] is 3.16 to 12.6 nM; for `N#Cc1ccc2c(c1)CCN(CC[C@H]1CC[C@H](NC(=O)Cc3ccccc3F)CC1)C2` [Example 3, trans-6-Cyano-2-(2-(1-(4-(2-fluorophenyl)acetamido)cyclohexyl)ethyl)-1,2,3,4-tetrahydroisoquinoline] it is 3.16 to 12.6 nM.
For the compound `N#Cc1ccc2c(c1)CCN(CC[C@H]1CC[C@H](NC(=O)Cc3cccc(F)c3)CC1)C2` [Example 4, trans-6-Cyano-2-(2-(1-(4-(3-fluorophenyl)acetamido)cyclohexyl)ethyl)-1,2,3,4-tetrahydroisoquinoline], the Ki was 3.16 to 12.6 nM.
Turning to `N#Cc1cccc(CC(=O)N[C@H]2CC[C@H](CCN3CCc4cc(C#N)ccc4C3)CC2)c1` [Example 6, trans-6-Cyano-2-(2-(1-(4-(3-cyanophenyl)acetamido)cyclohexyl)ethyl)-1,2,3,4-tetrahydroisoquinoline], the Ki is 3.16 to 12.6 nM.
For `N#Cc1ccc(CC(=O)N[C@H]2CC[C@H](CCN3CCc4cc(C#N)ccc4C3)CC2)cc1` [Example 7, trans-6-Cyano-2-(2-(1-(4-(4-cyanophenyl)acetamido)cyclohexyl)ethyl)-1,2,3,4-tetrahydroisoquinoline] the value was 3.16 to 12.6 nM.
Turning to `N#Cc1ccc2c(c1)CCN(CC[C@H]1CC[C@H](NC(=O)CCc3ccccc3)CC1)C2` [Example 8, trans-6-Cyano-2-(2-(1-(4-(3-phenyl)propionamido)cyclohexyl)ethyl)-1,2,3,4-tetrahydroisoquinoline], the Ki is 3.16 to 12.6 nM.
The figure for `N#Cc1ccc2c(c1)CCN(CC[C@H]1CC[C@H](NC(=O)Cc3ccc(-c4ccccc4)cc3)CC1)C2` [Example 9, trans-6-Cyano-2-(^2-(1-(4-(4-phenyl)phenylacetamido)cyclohexyl)-ethyl)-1,2,3,4-tetrahydroisoquinoline] is 3.16 to 12.6 nM.
For `N#Cc1ccc2c(c1)CCN(CC[C@H]1CC[C@H](NC(=O)Cc3cccs3)CC1)C2` [Example 10, trans-6-Cyano-2-(2-(1-(4-(2-thienyl)acetamido)cyclohexyl)ethyl)-1,2,3,4-tetrahydroisoquinoline] the value was 3.16 to 12.6 nM; for `N#Cc1ccc2c(c1)CCN(CC[C@H]1CC[C@H](NC(=O)Cc3ccsc3)CC1)C2` [Example 11, trans-6-Cyano-2-(2-(1-(4-(3-thienyl)acetamido)cyclohexyl)ethyl)-1,2,3,4-tetrahydroisoquinoline], 3.16 to 12.6 nM.
Turning to `N#Cc1ccc2c(c1)CCN(CC[C@H]1CC[C@H](NC(=O)Cc3c[nH]c4ccccc34)CC1)C2` [Example 12, trans-6-Cyano-2-(2-(1-(4-(3-indolyl)acetamido)cyclohexyl)ethyl)-1,2,3,4-tetrahydroisoquinoline], the Ki was 3.16 to 12.6 nM.
For `N#Cc1ccc2c(c1)CCN(CC[C@H]1CC[C@H](NC(=O)Cc3cc(F)ccc3F)CC1)C2` [Example 13, trans-6-Cyano-2-(2-(1-(4-(2,5-difluoro)phenylacetamido)cyclohexyl)-ethyl)-1,2,3,4-tetrahydroisoquinoline] the value was 3.16 to 12.6 nM; for `N#Cc1ccc2c(c1)CCN(CC[C@H]1CC[C@H](NC(=O)Cc3ccc(F)c(F)c3)CC1)C2` [Example 14, trans-6-Cyano-2-(2-(1-(4-(3,4-difluoro)phenylacetamido)cyclohexyl)-ethyl)-1,2,3,4-tetrahydroisoquinoline], 3.16 to 12.6 nM.
Regarding `N#Cc1ccc2c(c1)CCN(CC[C@H]1CC[C@H](NC(=O)Cc3ccccn3)CC1)C2` [Example 15, trans-6-Cyano-2-(2-(1-(4-(2-pyridyl)acetamido)cyclohexyl)ethyl)-1,2,3,4-tetrahydroisoquinoline], the Ki was 3.16 to 12.6 nM.
The figure for `N#Cc1ccc2c(c1)CCN(CC[C@H]1CC[C@H](NC(=O)Cc3ccc(Br)cc3)CC1)C2` [Example 16, trans-6-Cyano-2-(2-(1-(4-(4-bromo)phenylacetamido)cyclohexyl)-ethyl)-1,2,3,4-tetrahydroisoquinoline] is 3.16 to 12.6 nM; for `N#Cc1ccc2c(c1)CCN(CC[C@H]1CC[C@H](NC(=O)Cc3ccc(I)cc3)CC1)C2` [Example 17, trans-6-Cyano-2-(2-(1-(4-(4-iodo)phenylacetamido)cyclohexyl)ethyl)-1,2,3,4-tetrahydroisoquinoline] it is 3.16 to 12.6 nM.
The figure for `N#Cc1ccc2c(c1)CCN(CC[C@H]1CC[C@H](NC(=O)Cc3cccc(Br)c3)CC1)C2` [Example 18, trans-6-Cyano-2-(2-(1-(4-(3-bromo)phenylacetamido)cyclohexyl)-ethyl)-1,2,3,4-tetrahydroisoquinoline] is 3.16 to 12.6 nM; for `N#Cc1ccc2c(c1)CCN(CC[C@H]1CC[C@H](NC(=O)Cc3ccc(F)cc3F)CC1)C2` [Example 19, trans-6-Cyano-2-(2-(1-(4-(2,4-difluoro)phenylacetamido)cyclohexyl)-ethyl)-1,2,3,4-tetrahydroisoquinoline] it is 3.16 to 12.6 nM; for `N#Cc1ccc2c(c1)CCN(CC[C@H]1CC[C@H](NC(=O)Cc3cccc(C(F)(F)F)c3)CC1)C2` [Example 20, trans-6-Cyano-2-(2-(1-(4-(3-trifluoromethyl)phenylacetamido)-cyclohexyl)ethyl)-1,2,3,4-tetrahydroisoquinoline] it is 3.16 to 12.6 nM.
Turning to `CC(C)(C)c1ccc(CC(=O)N[C@H]2CC[C@H](CCN3CCc4cc(C#N)ccc4C3)CC2)cc1` [Example 21, trans-6-Cyano-2-(2-(1-(4-(4-t-butyl)phenylacetamido)cyclohexyl)-ethyl)-1,2,3,4-tetrahydroisoquinoline], the Ki was 3.16 to 12.6 nM.
The figure for `N#Cc1ccc2c(c1)CCN(CC[C@H]1CC[C@H](NC(=O)Cc3csc4ccccc34)CC1)C2` [Example 22, trans-6-Cyano-2-(2-(1-(4-(3-benzo[b]thienyl)acetarnido)cyclohexyl)-ethyl)-1,2,3,4-tetrahydroisoquinoline] is 3.16 to 12.6 nM; for `N#Cc1ccc2c(c1)CCN(CC[C@H]1CC[C@H](NC(=O)COc3ccccc3)CC1)C2` [Example 23, trans-6-Cyano-2-(2-(1-(4-phenoxyacetamido)cyclohexyl)ethyl)-1,2,3,4-tetrahydroisoquinoline] it is 3.16 to 12.6 nM.
The figure for `N#Cc1ccc2c(c1)CCN(CC[C@H]1CC[C@H](NC(=O)CCCc3ccccc3)CC1)C2` [Example 24, trans-6-Cyano-2-(2-(1-(4-(4-phenyl)butyramido)cyclohexyl)ethyl)-1,2,3,4-tetrahydroisoquinoline] is 3.16 to 12.6 nM; for `N#Cc1ccc2c(c1)CCN(CC[C@H]1CC[C@H](NC(=O)CCc3ccc(F)cc3)CC1)C2` [Example 25, trans-6-Cyano-2-(2-(1-(4-(3-(4-fluoro)phenyl)propionamido)-cyclohexyl)ethyl)-1,2,3,4-tetrahydroisoquinoline] it is 3.16 to 12.6 nM; for `N#Cc1ccc2c(c1)CCN(CC[C@H]1CC[C@H](NC(=O)Cc3ccnc4ccccc34)CC1)C2` [Example 26, trans-6-Cyano-2-(2-(1-(4-(4-quinolyl)acetamido)-cyclohexyl)ethyl)-1,2,3,4-tetrahydroisoquinoline] it is 3.16 to 12.6 nM.
For `N#Cc1ccc2c(c1)CCN(CC[C@H]1CC[C@H](NC(=O)Cc3ccc(C(F)(F)F)cc3)CC1)C2` [Example 27, trans-6-Cyano-2-(2-(1-(4-(4-trifluoromethyl)phenylacetamido)-cyclohexyl)ethyl)-1,2,3,4-tetrahydroisoquinoline] the value was 3.16 to 12.6 nM; for `N#Cc1ccc2c(c1)CCN(CC[C@H]1CC[C@H](NC(=O)Cc3cc(F)cc(F)c3)CC1)C2` [Example 28, trans-6-Cyano-2-(2-(1-(4-(3,5-difluoro)phenylacetamido)-cyclohexyl)ethyl)-1,2,3,4-tetrahydroisoquinoline], 3.16 to 12.6 nM.
Take `N#Cc1ccc2c(c1)CCN(CC[C@H]1CC[C@H](NC(=O)Cc3cc4ccccc4s3)CC1)C2` [Example 29, trans-6-Cyano-2-(2-(1-(4-(2-benzothiophenyl)acetamido)-cyclohexyl)ethyl)-1,2,3,4-tetrahydroisoquinoline]: the Ki is 3.16 to 12.6 nM.
